According to patent US10143638B2, “Method of treating skin with ingenol mebutate” (LEO Laboratories Limited, priority 2009, dated 2018):

Tests used:
Type in all cases: cell-based, human
HAS3 = HAS3 gene expression by dermal fibroblasts (qPCR)
Description: (§1) A normal adult skin biopsy (6 mm) was obtained (n=1), with informed consent, from an individual attending the Oral Surgery Clinic, School of Dentistry, Wales College of Medicine, Cardiff. Following the application of a local anaesthetic, the dermal biopsy was collected and adult dermal fibroblast cultures established by single cell suspension technique, following enzymic degradation of the specimen. This technique has previously been reliably used to establish viable primary cultures of both oral and dermal fibroblasts in vitro (Cook et al, 2000; Stephens et al, 2001; 2003). Dermal fibroblasts were cultured in Fibroblast-Serum Containing Medium, containing Dulbecco's Modified Eagle's Medium (DMEM), supplemented with L-glutamine (2 mM), antibiotics (100 U/ml) penicillin G sodium, […] streptomycin sulphate and 0.25 μg/ml amphotericin B) and 10% foetal calf serum (all purchased from Invitrogen Ltd., Paisley, U.K.). Dermal fibroblast cultures were maintained at 37° C., in a 5% CO2/95% air atmosphere, with the culture medium being changed every 2-3 days. Dermal fibroblasts were used between) passage 7-17, for all experiments.
(§2) Following trypsinization, dermal fibroblasts were seeded in 24-well tissue culture plates, in PEP005-free, Fibroblast-Serum Containing Medium (1 ml), at a cell density of 2.5×10^4 cell/well. Dermal fibroblasts were maintained at 37° C., in a 5% CO2/95% air atmosphere, overnight. At this stage, the culture medium was replaced with Fibroblast-Serum Containing Medium (600 μl), containing 0 μg/ml, 0.01 μg/ml, 0.1 μg/ml, 1 μg/ml, 10 μg/ml or 100 μg/ml PEP005, +/−TGF-β1 (10 ng/ml) (three culture wells per PEP005 concentration). A control was also established, consisting of cells in Fibroblast-Serum Containing Medium, containing 1% DMSO. The dermal fibroblasts were maintained at 37° C., in a 5% CO2/95% air atmosphere, for 24 h or 72 h, prior to washing in PBS (3×1 ml) and Trizol® Reagent (250 μl) added to the cells, for 5 min at room temperature, to induce cell lysis. RNA was extracted by the phenol-chloroform method, as described above, while a cDNA library was generated via random hexamer RT, as described above. RNA (1 μg) was added to 100 µM random hexamer (1 μl), 5×RT Buffer (4 μl), 2.5 mM Deoxynucleoside Triphosphates (dNTPs, 5 μl), 2 μl DTT and Nuclease-Free Water, were added to the reaction (total volume, 20 μl). To denature the RNA, reaction tubes were placed in a GeneAmp PCR System 9700 (Applied Biosystems, Cheshire, U.K.) and heated for 5 min/95° C., prior to cooling to 4° C. Superscript (1 μl) and RNAsin® Ribonuclease Inhibitor (1 μl, Promega, Hampshire, U.K.) were added to each tube, and the tubes subjected to […] at 20° C. for 10 min, 42° C. for 1 h and 95° C. for 5 min, prior to storage at 4° C., until required. As a negative control, RT was also performed, with Nuclease-Free Water replacing the RNA sample.
(§3) qPCR was performed, as described above, with the probe and primers for HAS1, HAS2 and HAS3 (target genes) and the 18s ribosomal RNA (reference gene), designed and supplied by Applied Biosystems. PCR was performed in a final volume of 20 μl/sample, with each reaction mix consisting of cDNA (1 μl), target gene primers and probe (1 μl), Taqman® FAST Universal PCR Master Mix (10 μl, Applied Biosystems), and Nuclease-Free Water (8 μl). PCR amplification was performed, using an initial cycle of 95° C. for 1 s, followed by 40 cycles of 60° C. for 20 s. A cDNA-free control was also included. Again, the comparative CT method was used for relative quantification of gene expression. Each experiment was performed on three separate occasions.

HAS2 = HAS2 gene expression by dermal fibroblasts (qPCR); conditions: non-significant (p>0.05)
Description: as §1, §2, §3

dermal fibroblasts = test: Hyaluronan synthesis by dermal fibroblasts (Hyaluronic Acid Quantitative Test Kit)
Description: as §1
Following trypsinization, dermal fibroblasts were seeded in 24-well tissue culture plates in PEP005-free, Fibroblast-Serum Containing Medium (1 ml), at a cell density of 2.5×10^4 cell/well. Dermal fibroblasts were maintained at 37° C., in a 5% CO2/95% air atmosphere, for 48 h, prior to maintenance in serum-free, Fibroblast-Serum Containing Medium (1 ml), for a further 48 h. At this stage, the serum-free, culture medium was replaced with Fibroblast-Serum Containing Medium (600 μl), containing 0 μg/ml, 0.01 μg/ml, 0.1 μg/ml, 1 μg/ml, 10 μg/ml or 100 μg/ml PEP005, +/−TGF-β1 (10 ng/ml) (three culture wells per PEP005 concentration). A control was also established, consisting of cells in serum-free, Fibroblast-Serum Containing Medium, containing 1% DMSO. The dermal fibroblasts were maintained at 37° C., in a 5% CO2/95% air atmosphere, for 24 h or 72 h, prior to culture medium removal. Hyaluronan synthesis in the collected culture media was quantified, using a Hyaluronic Acid Quantitative Test Kit (Corgenix U.K. Ltd., Cambridgeshire, U.K.), which utilizes a naturally occurring bovine binding protein to hyaluronan. Supernatants were assayed, as per manufacturer's instructions, and optical density measured using a spectrophotometer at 450 nm. Hyaluronan concentrations were determined by comparing the absorbance of the sample against a reference curve prepared from the reagent blank and standards. Each experiment was performed on three separate occasions.

HAS1 = HAS1 gene expression by dermal fibroblasts (qPCR)
Description: as §1, §2, §3

Q: `C/C=C(/C)C(=O)O[C@H]1C(C)=C[C@]23C(=O)[C@@H](C=C(CO)[C@@H](O)[C@]12O)[C@H]1[C@@H](C[C@H]3C)C1(C)C` [PEP005, ingenol-3-angelate] was tested. Which HAS3 expression (HAS3; PEP005 0.01-100 μg/ml plus TGF-β1 (10 ng/ml), 72 h (p>0.05)) did it give?
A: Its HAS3 expression is “no significant effects”.

Q: And the HAS3 expression (HAS3; PEP005 0.01-100 μg/ml, absence of TGF-β1, 24 h, non-significant (p>0.05))?
A: Its HAS3 expression is “completely abolished”.

Q: What about the HAS3 expression (HAS3; PEP005 0.1-10 μg/ml plus TGF-β1 (10 ng/ml), 24 h, down-regulation, non-significant (p>0.05)) of the same compound?
A: Its HAS3 expression is “barely detectable levels”.

Q: What about the HAS3 gene expression (HAS3; PEP005 1-10 μg/ml, absence of TGF-β1, 72 h, non-significant (p>0.05)) of the same compound?
A: Its HAS3 gene expression is “up-regulation”.

Q: And the HAS2 gene expression (HAS2; PEP005 0.01-100 μg/ml plus TGF-β1 (10 ng/ml), 72 h)?
A: Its HAS2 gene expression is “general down-regulation”.

Q: And the HAS2 expression (HAS2; PEP005 0.1-10 μg/ml plus TGF-β1 (10 ng/ml), 24 h)?
A: The HAS2 expression was “up-regulation”.

Q: And the HAS2 expression (HAS2; PEP005 0.1-10 μg/ml, absence of TGF-β1, 24 h)?
A: Its HAS2 expression is “stimulatory effect”.

Q: What about the HAS2 gene expression (HAS2; PEP005 0.1-10 μg/ml, absence of TGF-β1, 72 h) of the same compound?
A: The HAS2 gene expression was “major up-regulation”.

Q: And the hyaluronan synthesis (dermal fibroblasts; PEP005 0.01-10 μg/ml, absence of TGF-β1, 24 h, compared to untreated controls)?
A: Its hyaluronan synthesis is “significant, stimulatory effect”.

Q: And the hyaluronan synthesis (dermal fibroblasts; PEP005 0.01-100 μg/ml, absence of TGF-β1, 72 h, compared to untreated controls)?
A: The hyaluronan synthesis was “significant, stimulatory effect”.

Q: What about the hyaluronan synthesis (dermal fibroblasts; PEP005 plus TGF-β1 (10 ng/ml), 24 h, compared to untreated controls and to PEP005 without TGF-β1) of the same compound?
A: Its hyaluronan synthesis is “significant, synergistic effect”.

Q: And the HAS1 expression (HAS1; PEP005 0.01-100 μg/ml plus TGF-β1 (10 ng/ml), 24 h, p<0.05 at 0.01 μg/ml, p<0.01 at 100 μg/ml)?
A: The HAS1 expression was “general down-regulation”.

Q: And the HAS1 expression (HAS1; PEP005 0.01-100 μg/ml plus TGF-β1 (10 ng/ml), 72 h, non-significant (p>0.05))?
A: The HAS1 expression was “general down-regulation”.

Q: What about the HAS1 expression (HAS1; PEP005, absence of TGF-β1, 24 h) of the same compound?
A: The HAS1 expression was “no obvious effects”.

Q: And the HAS1 expression (HAS1; PEP005, absence of TGF-β1, 72 h)?
A: Its HAS1 expression is “no obvious effects”.
